Measurements as given in PubChem BioAssay AID248 (DTP/NCI, 2004).
Values joined by “and” are separate entries in the source; they are usually repeats but may differ in a detail not shown here. Equal values may be shown once. Toxic doses and inconclusive results are not listed. No stated cut-off is given here; in the data, active means T/C of 150% or more; inactive means T/C below 125%.

System: L1210 leukemia ip in BDF1 mice, survival T/C
Assay: NCI In Vivo Anticancer Drug Screen. Data for tumor model L1210 Leukemia (intraperitoneal) in B6D2F1 (BDF1) mice
Conditions: endpoint: mean survival time, higher = longer survival
Method in brief: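 Read-out is survival time, reported as the treated-group measurement over the vehicle-control measurement.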

[1] = dose: 50.0 mg/kg/injection, schedule: Q01DX009 (ip), vehicle: saline with Tween-80
[2] = dose: 100.0 mg/kg/injection, schedule: Q01DX009 (ip), vehicle: saline with Tween-80
[3] = dose: 200.0 mg/kg/injection, schedule: Q01DX009 (ip), vehicle: saline with Tween-80
[4] = dose: 100.0 mg/kg/injection, schedule: Q04DX002 (ip), vehicle: saline with Tween-80
[5] = dose: 200.0 mg/kg/injection, schedule: Q04DX002 (ip), vehicle: saline with Tween-80
[6] = dose: 100.0 mg/kg/injection, schedule: Q01DX001 (ip), vehicle: saline
[7] = dose: 400.0 mg/kg/injection, schedule: Q01DX001 (ip), vehicle: saline
[8] = dose: 100.0 mg/kg/injection, schedule: Q04DX003 (ip), vehicle: saline with Tween-80
[9] = dose: 200.0 mg/kg/injection, schedule: Q04DX003 (ip), vehicle: saline with Tween-80
[10] = dose: 400.0 mg/kg/injection, schedule: Q01DX009 (ip), vehicle: saline with Tween-80
[11] = dose: 400.0 mg/kg/injection, schedule: Q04DX003 (ip), vehicle: saline with Tween-80
[12] = dose: 100.0 mg/kg/injection, schedule: Q01DX001 (ip), vehicle: Klucel (hydroxypropylcellulose) (HPC)
[13] = dose: 100.0 mg/kg/injection, schedule: Q04DX003 (ip), vehicle: saline
[14] = dose: 50.0 mg/kg/injection, schedule: Q01DX001 (ip), vehicle: carboxymethylcellulose (CMC)
[15] = dose: 100.0 mg/kg/injection, schedule: Q01DX001 (ip), vehicle: carboxymethylcellulose (CMC)
[16] = dose: 200.0 mg/kg/injection, schedule: Q01DX001 (ip), vehicle: carboxymethylcellulose (CMC)
[17] = dose: 400.0 mg/kg/injection, schedule: Q01DX001 (ip), vehicle: carboxymethylcellulose (CMC)
[18] = dose: 100.0 mg/kg/injection, schedule: Q01DX009 (ip), vehicle: saline
[19] = dose: 200.0 mg/kg/injection, schedule: Q01DX009 (ip), vehicle: saline
[20] = dose: 100.0 mg/kg/injection, schedule: Q01DX009 (ip), vehicle: Klucel (hydroxypropylcellulose) (HPC)
[21] = dose: 200.0 mg/kg/injection, schedule: Q01DX009 (ip), vehicle: Klucel (hydroxypropylcellulose) (HPC)
[22] = dose: 200.0 mg/kg/injection, schedule: Q04DX003 (ip), vehicle: saline
[23] = dose: 400.0 mg/kg/injection, schedule: Q04DX003 (ip), vehicle: saline

Measured: T/C

COC(=O)C(Cc1c[nH]c2ccccc12)NC(=O)CNC(=O)OCc1ccccc1 (stereo not given)
inactive: dose: 100.0 mg/kg/injection, schedule: Q04DX003 (ip), vehicle: other 98 % of control | dose: 200.0 mg/kg/injection, schedule: Q04DX003 (ip), vehicle: other 102 % of control | dose: 400.0 mg/kg/injection, schedule: Q04DX003 (ip), vehicle: other 98 % of control

O=C(CNC(=O)Nc1cccc(Cl)c1Cl)N/N=C/c1cccc([N+](=O)[O-])c1
inactive: [1] 90 % of control | [2] 96 % of control | [3] 90 % of control

Clc1ccc(/C=C/c2ccc(Cl)cc2)cc1
inactive: dose: 75.0 mg/kg/injection, schedule: Q04DX003 (ip), vehicle: Klucel (hydroxypropylcellulose) (HPC) 95 % of control | dose: 150.0 mg/kg/injection, schedule: Q04DX003 (ip), vehicle: Klucel (hydroxypropylcellulose) (HPC) 95 % of control | dose: 300.0 mg/kg/injection, schedule: Q04DX003 (ip), vehicle: Klucel (hydroxypropylcellulose) (HPC) 98 % of control

CCC1(C)C(=O)c2ccccc2N(C)C1=O (stereo not given)
inactive: [4] 104 % of control | [5] 104 % of control

Brc1ccc2[nH]c3c(c2c1)CCCC3
inactive: [6] 87 % of control | dose: 200.0 mg/kg/injection, schedule: Q01DX001 (ip), vehicle: saline 89 % of control | [7] 98 % of control

CCOC(=O)N1C(=O)C2C3CCC(O3)C2C1=O (stereo not given)
inactive: dose: 25.0 mg/kg/injection, schedule: Q01DX009 (ip), vehicle: saline with Tween-80 107 % of control | [1] 110 % of control

CCCCCSC(=O)C(N)=O
inactive: [2] 102 % of control | [8] 100 % of control | [3] 100 % of control | [9] 109 % of control | [10] 96 % of control | [11] 92 % of control

NC(=O)N/N=C\C=N/NC(N)=O
inactive: [12] 92 % of control | dose: 200.0 mg/kg/injection, schedule: Q01DX001 (ip), vehicle: Klucel (hydroxypropylcellulose) (HPC) 92 % of control

C(=C(c1ccccc1)c1ccccc1)C1=NCCS1
inactive: dose: 50.0 mg/kg/injection, schedule: Q04DX002 (ip), vehicle: saline with Tween-80 108 % of control | dose: 100.0 mg/kg/injection, schedule: Q03DX002 (ip), vehicle: saline with Tween-80 98 % of control | [4] 101 % of control | [5] 104 % of control | dose: 400.0 mg/kg/injection, schedule: Q03DX002 (ip), vehicle: saline with Tween-80 117 % of control

C1CCN(CCC2CCCCN2)CC1 (stereo not given)
inactive: dose: 25.0 mg/kg/injection, schedule: Q04DX003 (ip), vehicle: saline 105 % of control | dose: 50.0 mg/kg/injection, schedule: Q04DX003 (ip), vehicle: saline 94 % of control | [13] 101 % of control and 92 % of control

CCOC(=O)C(C)(c1c(C)n(C)c2ccccc12)c1c(C)n(C)c2ccccc12
inactive: dose: 50.0 mg/kg/injection, schedule: Q01DX001 (ip), vehicle: other 91 % of control | dose: 100.0 mg/kg/injection, schedule: Q01DX001 (ip), vehicle: other 91 % of control | dose: 200.0 mg/kg/injection, schedule: Q01DX001 (ip), vehicle: other 91 % of control | dose: 400.0 mg/kg/injection, schedule: Q01DX001 (ip), vehicle: other 91 % of control

CCCCCCCCCCCCCCN=C(N)N
inactive: [14] 105 % of control | [15] 97 % of control | [16] 97 % of control | [17] 94 % of control

O=CC(Cl)Cl
inactive: [18] 92 % of control | [19] 110 % of control | dose: 400.0 mg/kg/injection, schedule: Q01DX009 (ip), vehicle: saline 108 % of control

O=C(O)c1c(Cl)nsc1Cl
inactive: [20] 98 % of control | [21] 98 % of control

OCCOc1c(Cl)c(C(Cl)(Cl)Cl)nc2ccccc12
inactive: dose: 25.0 mg/kg/injection, schedule: Q01DX001 (ip), vehicle: Klucel (hydroxypropylcellulose) (HPC) 103 % of control | dose: 50.0 mg/kg/injection, schedule: Q01DX001 (ip), vehicle: Klucel (hydroxypropylcellulose) (HPC) 106 % of control | [12] 106 % of control

COc1cccc(OC)c1-c1oc2ccccc2c(=O)c1O
inactive: dose: 100.0 mg/kg/injection, schedule: Q01DX009 (ip), vehicle: acetone 94 % of control | [13] 95 % of control | dose: 200.0 mg/kg/injection, schedule: Q01DX009 (ip), vehicle: acetone 95 % of control | [22] 94 % of control | dose: 400.0 mg/kg/injection, schedule: Q01DX009 (ip), vehicle: acetone 95 % of control | [23] 94 % of control

CC(=O)Nc1cc(N(CCOS(C)(=O)=O)CCOS(C)(=O)=O)ccc1N=O
inactive: dose: 0.05 mg/kg/injection, schedule: Q01DX015 (ip), vehicle: saline 114 % of control | dose: 0.1 mg/kg/injection, schedule: Q01DX015 (ip), vehicle: saline 123 % of control | dose: 0.2 mg/kg/injection, schedule: Q01DX015 (ip), vehicle: saline 114 % of control | dose: 0.4 mg/kg/injection, schedule: Q01DX015 (ip), vehicle: saline 114 % of control | dose: 1.0 mg/kg/injection, schedule: Q01DX015 (ip), vehicle: saline 121 % of control | dose: 1.7 mg/kg/injection, schedule: Q01DX015 (ip), vehicle: saline 119 % of control | dose: 7.5 mg/kg/injection, schedule: Q01DX001 (ip), vehicle: saline 113 % of control | dose: 10.0 mg/kg/injection, schedule: Q01DX001 (ip), vehicle: saline 124 % of control

CCCC(CCC)NCC(C)O (stereo not given)
inactive: dose: 75.0 mg/kg/injection, schedule: Q01DX001 (ip), vehicle: acid diluted with saline 104 % of control

O=S(=O)(O)c1cccc(N=Nc2c(S(=O)(=O)O)cc3cc(S(=O)(=O)O)c(N=Nc4cccc(S(=O)(=O)O)c4)c(O)c3c2O)c1
inactive: [2] 109 % of control | [13] 116 % of control | [3] 97 % of control | [22] 111 % of control | [10] 108 % of control | [23] 103 % of control

CC(C)(C)CC(C)(C)c1ccc(OCCOc2ccc(NS(=O)(=O)c3ccc(N)c([N+](=O)[O-])c3)cc2)cc1
inactive: [8] 94 % of control | [9] 92 % of control

O=P(NC1CCCCC1)(Oc1ccccc1)Oc1ccccc1
inactive: [14] 95 % of control | [15] 92 % of control | [8] 102 % of control | [16] 97 % of control | [9] 97 % of control | [17] 97 % of control | [11] 100 % of control

CCCO[Si](C)(C)CCl
inactive: [14] 92 % of control | [15] 92 % of control | [16] 92 % of control | [17] 98 % of control

NCc1ccccn1
inactive: [6] 98 % of control | [7] 95 % of control

CC(=O)c1cccc(NC(=O)Oc2ccc(F)cc2Cl)c1
inactive: [20] 97 % of control | [21] 108 % of control

CCCCCCC(O)CCCCCCCCCCC(=O)OC (stereo not given)
inactive: [2] 98 % of control | [3] 88 % of control | [10] 92 % of control

CCN(CC)CCCC(C)Nc1cc(OC)cc2cccnc12 (stereo not given)
inactive: dose: 10.0 mg/kg/injection, schedule: Q01DX009 (ip), vehicle: Klucel (hydroxypropylcellulose) (HPC) 93 % of control | dose: 20.0 mg/kg/injection, schedule: Q01DX001 (ip), vehicle: Klucel (hydroxypropylcellulose) (HPC) 100 % of control | dose: 20.0 mg/kg/injection, schedule: Q01DX009 (ip), vehicle: Klucel (hydroxypropylcellulose) (HPC) 96 % of control | dose: 40.0 mg/kg/injection, schedule: Q01DX001 (ip), vehicle: Klucel (hydroxypropylcellulose) (HPC) 100 % of control | dose: 40.0 mg/kg/injection, schedule: Q01DX009 (ip), vehicle: Klucel (hydroxypropylcellulose) (HPC) 96 % of control

CCCCCCCCCCCC(=O)[O][Sn]([CH2]CCC)([CH2]CCC)[O]C(=O)CCCCCCCCCCC
inactive: dose: 12.5 mg/kg/injection, schedule: Q04DX003 (ip), vehicle: saline with Tween-80 108 % of control

O=C(O)CCCC[P+](c1ccccc1)(c1ccccc1)c1ccccc1
inactive: [18] 98 % of control | [13] 105 % of control | [19] 100 % of control | [22] 107 % of control | [23] 102 % of control
